The values that follow are results of earlier work, collected in US20060153823A1, “Compositions and methods for nutritional supplementation” (Everett Laboratories, Inc., priority 2005, published 2006).

SMILES strings stand for the structures.

For data set [1], the system named is patients with hypertension.
Data set [2] has as its system patients with congestive heart failure.
The test system of data set [3] is patients with ischemic heart disease.
Data set [4] has as its system patients with cardiomyopathy.
The test system of data set [5] is nitric oxide (NO).

For the molecule `COC1=C(OC)C(=O)C(C/C=C(\C)CC/C=C(\C)CC/C=C(\C)CC/C=C(\C)CC/C=C(\C)CC/C=C(\C)CC/C=C(\C)CC/C=C(\C)CC/C=C(\C)CCC=C(C)C)=C(C)C1=O` [CoQ10, coenzyme Q10], the blood pressure entry in data set [1] is reported as “significantly reduce blood pressure”. For the same molecule, in data set [2], the blood pressure entry is reported as “reduce blood pressure”, the myocardial metabolic function result is listed as “improve myocardial metabolic function” and the myocardial thickness entry is reported as “reduce myocardial thickness”. In addition, the “magnitude and rate of clinical improvement” value in data set [3] is “enhances both the magnitude and rate of clinical improvement”. In data set [4], the “cardiac function including ejection fraction and cardiac output” value is reported as “significant improvement in cardiac function”.
For the molecule `Nc1nc2ncc(CNc3ccc(C(=O)N[C@@H](CCC(=O)O)C(=O)O)cc3)nc2c(=O)[nH]1` [folic acid], the “levels and functioning of nitric oxide (NO)” value in data set [5] is “improves the levels and functioning”.
